Results as given in patent US12685725B2, “Pridopidine for the treatment of mitochondrial-associated diseases and disorders and endoplasmic reticulum (ER) stress” (PRILENIA NEUROTHERAPEUTICS LTD., priority 2019, dated 2026).
Where two headings read alike, the source gives them in different places.

Legend:
YAC128 striatal neurons = conditions: 1 μM
Experimental: Briefly, plasmid was diluted in TE (in mM: 1 Tris-HCl pH 7.3, 1 mM EDTA), followed by the addition of CaCl2 (in mM: 2.5 CaCl2 in 10 HEPES, pH 7.2). The DNA solution was carefully added to 2×HEBS (in mM: 12 dextrose, 50 HEPES, 10 KCl, 280 NaCl and 1.5 Na2HPO4·2H2O, pH 7.2) while bubbling air through the solution. The mixture was then incubated for 25 min at room temperature. The precipitates were added dropwise to the coverslips in Neurobasal medium and incubated for 80 minutes at 37° C. The DNA-Ca^2+-phosphate precipitates were dissolved with freshly-made dissolution medium (Neurobasal medium with 20 mM HEPES, pH 6.8) and incubated for 7 min at room temperature. The transfected neurons were then washed with Neurobasal medium and transferred back to their original dishes containing conditioned culture medium until DIV12.

[1] = tested on: YAC128 cortical and striatal neurons; conditions: 24 h
Experimental: After basal reading for 10 minutes, neurons were stimulated with antimycin A (2 μM).

[2] = tested on: Nrf2/ARE genes (Nqo1, Hmox1, GCLc) in HD lymphoblasts; conditions: 5 μM, 24 h
Experimental: The qPCR was performed using the ABI Prism 7500 Sequence Detection System (Applied Biosystems). Each sample was run in triplicate. Gene expression was normalized to Rpl13a or UBC mRNA.

[3] = tested on: eIF2α phosphorylation in HEK 293 cells; conditions: for concentration of maximal effect on reducing eIF2α phosphorylation: cells expressing Htt96Q
Experimental: Transfections of HEK 293 cells were carried out according to the calcium phosphate method. STHdh^Q7/7 cells are a murine striatal cell line with a stable knock-in of the full-length wild type (WT) human Htt containing a polyglutamine stretch of 7 glutamines (Trettel et al. 2000). […] No cell line used is listed as a commonly misidentified cell line. Cell lines were not authenticated. To reduce any risk of cross-contamination they were grown for a limited number of passages. Transient transfections of NIH 3T3 and STHdh^Q7/7 cells were performed using an MP-100 Microporator (Digital Bio) or ViaFect™ Transfection Reagent (Cat.No. E4981) (Promega), according to the manufacturer's protocols.
(§1) Cells were lysed in PBS containing 1% Triton X-100, 0.5% sodium deoxycholate with protease inhibitors and centrifuged to pellet insoluble aggregates, debris and nuclei. Phosphatase inhibitor cocktail 2 and 3 and 10 mM […] phosphate were added to the lysis buffer to inhibit phosphatases for detection of phosphorylated proteins. Supernatants were separated from pellets and incubated in loading buffer for 5 min at 100° C., pellets were incubated for 10 min at 100° C. After SDS-PAGE and transfer to nitrocellulose membrane, blocking was done in 5% low-fat milk and 0.1% Tween-20 in PBS for 1 h. Incubation with the primary antibody was overnight at 4° C. and after three washes in 0.1% Tween-20 in PBS, incubation with the appropriate secondary antibody was for 1 h at room temperature. After washing, enhanced chemiluminescence assay was performed and the membrane was exposed and quantified in a Bio-Rad ChemiDocXRS Imaging System (Bio-Rad, Hercules, CA).

[4] = tested on: CHOP, GADD34, ATF6, XBP1s in cells expressing myc-Htt96Q or myc-Htt20Q
Experimental: Total cell RNA was extracted with TRIzol reagent (Invitrogen) according to the manufacturer's instructions. […] Real-time PCR was carried out using a CFX Connect Real-Time PCR Detection System (BioRad) and the amplifications were done using the SYBR Green PCR Master Mix (Cat.No. pb089617-100-1) (Pcrbio). Reactions were run in triplicates in three independent experiments. Housekeeping gene GAPDH was used as an internal control to normalize the variability of expression levels.
as §1

[5] = tested on: Htt96Q aggregates in S1R+/+ and S1R−/− HEK 293 cells; conditions: 24 h
Experimental: HEK 293 cells were grown on 60 mm plates and transfected for the expression of myc-Htt96Q. Cells were collected 24 hours post-transfection. After washing with 1×PBS cells were resuspended in 100 μl of 1×PBS+ protease inhibitor cocktail. Sonication was done in a sonic bath for 3×10 sec (amp5-6), leaving on ice for 30 sec between the sonications. Cell debris were removed by centrifugation at 16,000×g for 15 min and protein concentration was measured in the supernatant using the BCA method. Samples containing 50 μg total protein were taken and the volume adjusted to 100 μl with 1% SDS in PBS. After incubation for 5 min at 100° C. sample duplicates were loaded on the slots of a nitrocellulose membrane pre-wet with 1% SDS in PBS in a dot-blotting apparatus. Slots were washed twice with 1 ml 1% SDS in PBS and the membrane was transferred to 5% milk blocking solution. Immunoblotting was performed as described above.

[6] = tested on: HD-iPSC-derived neural stem cells (HD-NSCs)
Experimental: Neural induction occurred between day 0 and days 12-15. From day 0 to day 5, cells were maintained in iPSC medium without FGF2 and incubated with 5 μM dorsomorphin and 10 μM SB431542. Medium was changed every other day. […] Between days 12 and 15, fields full of rosettes became morphologically visible. To allow the cells to differentiate, cells were replated in Geltrex® coated 12-well plates. For detaching, 500 μl of 1×Accutase® (Thermo Fisher Sci., catalog no: A1110501) was added to the plate and incubated at 37° C. in 5% CO2, for 15-20 min. Accutase was diluted in DMEM/F12 medium pre-warmed to 37° C. Cells were collected and spun for 3 min at 200×g at room temperature, and resuspended in 200 μl of media into 12-well plates. […] Cells were incubated overnight at 37° C., 5% CO2. Cells were passaged every 2-3 days for no more than 10-12 passages.
Oxygen consumption rate (OCR) in WT and hemizygous YAC128 cortical/striatal co-cultures and NSCs was measured using Seahorse XFe-24/96 flux analyzers (Seahorse Bioscience, Billerica, MA, USA) following the manufacturer's instructions. […] Pridopidine (0.1, 1 and/or 5 μM) was added, when indicated in the graphs, 24 h before the experiment. The sensor cartridge plate was incubated with immersed sensors in a non-CO2 incubator at 37° C. for ~16 h (overnight). […] The cell medium was aspirated gently to avoid disturbing cell monolayers. […] Accordingly, mitochondrial basal respiration, maximal respiration and ATP production was automatically calculated and recorded by the Seahorse software. Data was normalized for protein levels.

HD lymphoblasts = conditions: 5 μM, H2O2-challenged conditions, p=0.0001
Experimental: H2O2 (9.8 M stock) was dissolved in cell culture medium prior to experimentation. Primary neurons and lymphoblasts cultured on PDL-coated plates were treated with H2O2 (0-1 mM) for up to 6 hours. Oxidative stress was measured using the CellROX red reagent (Life Technologies, catalog no. C10422). Cells were treated with 5 μM CellRox red in complete medium, then incubated for 30 minutes. The cells were then washed with PBS and imaged on a Zeiss Axiovert inverted microscope (Zeiss, Jena, Germany) using a 10× objective. Exposure settings were maintained for all samples. Eight random fields were sampled, and the fluorescence intensity was measured using ImageJ software and normalized to the DAPI signal.

[7] = tested on: S1R-dependence of eIF2α phosphorylation in HEK 293 cells; conditions: 8 h
Experimental: HEK 293 cells were transfected with plasmids carrying Cas9 and 3 different guide RNAs (gRNA) targeting human Sigma1-R and a control gRNA. Ten days after transfection and selection with puromycin, cell lysates of the pools of selected cells were tested for S1R knockout by immunoblotting. […] Subsequent cloning by dilution produced, after 4 weeks, several clones with complete knockout of Sigma1-R for each gRNA.
Cells were lysed in PBS containing 1% Triton X-100, 0.5% sodium deoxycholate with protease inhibitors and centrifuged to pellet insoluble aggregates, debris and nuclei. Phosphatase inhibitor cocktail 2 and 3 and 10 mM 0-glycerol phosphate were added to the lysis buffer to inhibit phosphatases for detection of phosphorylated proteins. Supernatants were separated from pellets and incubated in loading buffer for 5 min at 100° C., pellets were incubated for 10 min at 100° C. After SDS-PAGE and transfer to nitrocellulose membrane, blocking was done in 5% low-fat milk and 0.1% Tween-20 in PBS for 1 h. Incubation with the primary antibody was overnight at 4° C. and after three washes in 0.1% Tween-20 in PBS, incubation with the appropriate secondary antibody was for 1 h at room temperature. After washing, enhanced chemiluminescence assay was performed and the membrane was exposed and quantified in a Bio-Rad ChemiDocXRS Imaging System (Bio-Rad, Hercules, CA).

[8] = cells expressing mutant Htt96Q, 48 h

Structure (SMILES): CCCN1CCC(c2cccc(S(C)(=O)=O)c2)CC1 [Pridopidine, 4-[3-(methylsulfonyl)phenyl]-1-propyl-piperidine]
- velocity of motile mitochondria (YAC128 striatal neurons; YAC128 neurons, p<0.05): This decrease was ameliorated
- proportion of motile mitochondria (YAC128 striatal neurons; YAC128 striatal neurons, p=0.0286): significantly increases the proportion of motile mitochondria
- mito-H2O2 levels prompted by Ant A ([1]; YAC128 cortical neurons, 1 μM, p<0.0001): reverts the increased levels of mito-H2O2 prompted by Ant A
- mito-H2O2 levels prompted by Ant A ([1]; YAC128 striatal neurons, 0.1 μM, p=0.0005): reverts the increased levels of mito-H2O2 prompted by Ant A
- mito-H2O2 levels prompted by Ant A ([1]; YAC128 striatal neurons, 1 μM, p<0.0001): reverts the increased levels of mito-H2O2 prompted by Ant A
- GCLc expression (mRNA) [2]: shows a trend towards upregulation
- expression of Nqo1 (mRNA) ([2]; p=0.0010): significantly upregulates
- expression of Hmox1 (mRNA) ([2]; p=0.0308): significantly upregulates
- reduction of eIF2α-phosphorylation levels compared to the untreated control ([3]; HEK293 cells expressing Htt96Q, 24 h, dose-dependent 0 to 3 μM): 3.6 fold
- phosphorylation of eIF2α ([3]; Htt96Q-expressing cells, high doses of 30 and 150 μM): no effect
- concentration of maximal effect on reducing eIF2α phosphorylation ([3]; after 8 hours): 3 µM
- concentration of maximal effect on reducing eIF2α phosphorylation ([3]; after 24 hours): 3 µM
- eIF2α phosphorylation ([3]; cells expressing WT Htt20Q): unaffected by pridopidine treatment
- TG-induced ER stress as measured by eIF2α-P ([3]; cells expressing myc-Htt20Q, 2 μg/ml thapsigargin): down to the levels of untreated cells
- reduction in ATF6 fragment ([4]; Htt96Q-expressing cells, 3 μM): 35%
- reduction in XBP-1s mRNA (IRE1 pathway) ([4]; Htt96Q-expressing cells, 3 μM): 25%
- CHOP and GADD34 levels ([4]; cells expressing Htt20Q): does not affect these factors
- reduction of CHOP levels [4, 8]: 2.5 fold
- reduction of GADD34 levels [4, 8]: 7 fold
- increase of the amount of Htt96Q in SDS-insoluble aggregates ([5]; S1R+/+ cells): up to 35%
- effect on Htt96Q in SDS-insoluble aggregates ([5]; S1R−/− cells): abolished
- ATP production [6]: shows a trend towards increasing ATP production
- maximal respiration [6]: also increases
- mitochondrial basal respiration [6]: also increases mitochondrial basal
- decrease of ROS levels (CellRox) (HD lymphoblasts): 57%
- eIF2α-P levels ([7]; S1R expressing control clone expressing Htt96Q): significantly reduces eIF2α-P levels
- concentration of maximal effect on eIF2α phosphorylation ([7]; control clone expressing myc-Htt96Q): 3 µM
